Holding throughout (type): cell-based
Assay [1] has as its system HTT mRNA. In words: Splicing assay (RT-qPCR) of HTT mRNA alternative junction (AJ) and canonical junction (CJ). The settings on record: A673 or K562 cells, 24 hours; for IC50: decrease in CJ mRNA, read-out: HTT CJ IC50; for AC50: increase in AJ mRNA, read-out: HTT AJ AC50. The protocol:
Compounds described herein were used to modulate RNA transcript abundance in cells. The expression of a target mRNA was measured by detecting the formation of an exon-exon junction in the canonical transcript (CJ). A compound mediated exon-inclusion event was detected by observing an increase in formation of a new junction with an alternative exon (AJ). Real-time qPCR assays were used to detect these splicing switches and interrogate the potency of various compounds towards different target genes. A high-throughput real time quantitative PCR (RT-qPCR) assay was developed to measure these two isoforms of the mRNA (CJ and AJ) for an exemplary gene, HTT, together with a control housekeeping gene, GAPDH or GUSB or PPIA, used for normalization. Briefly, the A673 or K562 cell line was treated with various compounds described herein (e.g., compounds of Formula (I) or (II)). After treatment, the levels of the HTT mRNA targets were determined from each sample of cell lysate by cDNA synthesis followed by qPCR.
Materials: • Cells-to-CT 1-step kit: ThermoFisher A25602, Cells-to-CT lysis reagent: ThermoFisher 4391851C, TagMan™ Fast Virus 1-Step Master Mix: ThermoFisher 4444436 • GAPDH: VIC-PL, ThermoFisher 4326317E (Assay: Hs99999905_ml)—used for K562/suspension cell lines • GUSB: VIC-PL, ThermoFisher 4326320E (Assay: Hs99999908 ml)—used for K562/suspension cell lines • PPIA: VIC-PL, ThermoFisher 4326316E (Assay: Hs99999904 ml)—used for A673/adherent cell lines
The A673 cell line was cultured in DMEM with 10% FBS. Cells were diluted with full growth media and plated in a 96-well plate (15,000 cells in 100 ul media per well). The plate was incubated at 37° C. with 5% CO2 for 24 hours to allow cells to adhere. An 11-point 3-fold serial dilution of the compounds was made in DMSO then diluted in media in an intermediate plate. Compounds were transferred from the intermediate plate to the cell plate with the top dose at a final concentration of 10 uM in the well. Final DMSO concentration was kept at or below 0.25%. The cell plate was returned to the incubator at 37° C. with 5% CO2 for an additional 24 hours.
The K562 cell line was cultured in IMDM with 10% FBS. For K562, cells were diluted with full growth media and plated in either a 96-well plate (50,000 cells in 50 uL media per well) or a 384-well plate (8,000-40,000 cells in 45 uL media per well). An 11-point 3-fold serial dilution of the compounds were made in DMSO then diluted in media in an intermediate plate. Compound was transferred from the intermediate plate to the cell plate with the top dose at a final concentration of 10 uM in the well. Final DMSO concentration was kept at or below 0.25%. Final volume was 100 uL for 96-well plate and 50 uL for 384-well plate. The cell plate was then placed in an incubator at 37° C. with 5% CO2 for 24 hours.
The cells were then gently washed with 50 uL-100 uL cold PBS before proceeding to addition of lysis buffer. 30 uL-50 uL of room temperature lysis buffer with DNAse I (and optionally RNAsin) was added to each well. Cells were shaken/mixed thoroughly at room temperature for 5-10 minutes for lysis to take place and then 3 uL-5 uL of room temperature stop solution was added and wells were shaken/mixed again. After 2-5 minutes, the cell lysate plate was transferred to ice for RT-qPCR reaction setup. The lysates could also be frozen at −80° C. for later use.
In some cases, a direct lysis buffer was used. An appropriate volume of 3X lysis buffer (10 mM Tris, 150 mM NaCl, 1.5%-2.5% Igepal and 0.1-1 U/uL RNAsin, pH 7.4) was directly added to either K562 or A673 cells in media and mixed by pipetting 3 times. The plates were then incubated at room temperature with shaking/rocking for 20-50 minutes to allow for lysis to take place. After this time, the cell lysate plate was transferred to ice to set up for the RT-qPCR reactions. The lysates could also be frozen at −80° C. for later use. […]
In general terms: Real-time PCR tracks product formation cycle by cycle.

The subject of assay [2] is SMN2 CJ mRNA. In words: Gene panel canonical junction qPCR splicing assay, SMN2. The settings on record: Table 4, read-out: SMN2 IC50 (decrease in CJ mRNA levels). The protocol: (§1) Compounds described herein were used to modulate RNA transcript abundance in cells. The expression of a target mRNA was measured by detecting the formation of an exon-exon junction in the canonical transcript (CJ). A compound mediated exon-inclusion event was detected by observing an increase in formation of a new junction with an alternative exon (AJ). Real-time qPCR assays were used to detect these splicing switches and interrogate the potency of various compounds towards different target genes. A high-throughput real time quantitative PCR (RT-qPCR) assay was developed to measure these two isoforms of the mRNA (CJ and AJ) for an exemplary gene, HTT, together with a control housekeeping gene, GAPDH or GUSB or PPIA, used for normalization. Briefly, the A673 or K562 cell line was treated with various compounds described herein (e.g., compounds of Formula (I) or (II)). After treatment, the levels of the HTT mRNA targets were determined from each sample of cell lysate by cDNA synthesis followed by qPCR. The data analysis was performed by first determining the ΔCt vs the housekeeper gene. This ΔCt was then normalized against the DMSO control (ΔΔCt) and converted to RQ (relative quantification) using the 2^(−ΔΔCt) equation. The RQ were then converted to a percentage response by arbitrarily setting an assay window of 3.5 ΔCt for HTT-CJ and an assay window of 9 ΔCt for HTT-AJ. […] The percentage response was then fitted to the 4 parametric logistic equation to evaluate the concentration dependence of compound treatment. The increase in AJ mRNA is reported as AC50 (compound concentration having 50% response in AJ increase) while the decrease in CJ mRNA levels is reported as IC50 (compound concentration having 50% response in CJ decrease). Additional studies were carried out for a larger panel of genes using the protocol provided above. The junction between flanking upstream and downstream exons was used to design canonical junction qPCR assays. At least one of the forward primer, reverse primer or the CY5-labeled 5′ nuclease probe (with 3′ quencher such as ZEN/Iowa Black FQ) was designed to overlap with the exon junction to capture the CJ mRNA transcript. BLAST was used to confirm the specificity of the probeset and parameters such as melting temperature, GC content, amplicon size, and primer dimer formation are considered during their design. Data for the decrease in CJ mRNA levels for three exemplary genes (HTT, SMN2, and Target C) analyzed in this panel are reported as IC50 (compound concentration having 50% response in CJ decrease).

The test system of assay [3] is HTT CJ mRNA. The experiment in a line: Gene panel canonical junction qPCR splicing assay, HTT. The settings on record: Table 4, read-out: HTT IC50 (decrease in CJ mRNA levels). The protocol: as §1
Assay [4] concerns Target C CJ mRNA. The experiment in a line: Gene panel canonical junction qPCR splicing assay, Target C. The settings on record: Table 4, read-out: Target C IC50 (decrease in CJ mRNA levels). The protocol:
as §1

A value given as a limit tells only on which side of the number the result lay.

A word on the IC50: it is the midpoint of a concentration-inhibition curve. One may read the AC50 as the concentration at which the activity in the assay is half-maximal. As to `Cc1nc2cc(O)c(-c3ccc4nc(N5CC[C@H](NC(C)C)C5)ccc4n3)cc2o1` (single isomer, unassigned) [Compound 233, 6-{6-[3-(isopropylamino)pyrrolidin-1-yl]-1,5-naphthyridin-2-yl}-2-methyl-1,3-benzoxazol-5-ol], the concentration for half-maximal inhibition (IC50) in assay [1], in assay [2], in assay [3] and in assay [4] was under 100 nM each time. Also, the AC50 in assay [1] is under 100 nM.
`Cc1nc2c(C)c(O)c(-c3ccc4nc(N5CCC(NC6CCC6)C5)ccc4n3)cc2o1` (single isomer, unassigned) [Compound 237, 6-{6-[3-(cyclobutylamino)pyrrolidin-1-yl]-1,5-naphthyridin-2-yl}-2,4-dimethyl-1,3-benzoxazol-5-ol]: the IC50 in assay [1], in assay [2], in assay [3] and in assay [4] was under 100 nM throughout. Moreover, the concentration at half-maximal activity (AC50) in assay [1] was under 100 nM.
As for `Cc1nc2c(F)c(O)c(-c3ccc4nc(N5CC[C@@H](NC6CC6)C5)ccc4n3)cc2o1` (single isomer, unassigned) [Compound 253, 6-{6-[3-(cyclopropylamino)pyrrolidin-1-yl]-1,5-naphthyridin-2-yl}-4-fluoro-2-methyl-1,3-benzoxazol-5-ol], the IC50 in assay [1], in assay [2], in assay [3] and in assay [4] was under 100 nM throughout. Also, the half-maximal activity concentration (AC50) in assay [1] is under 100 nM.
As for `Cc1nc2c(F)c(O)c(-c3ccc4nc(N5CC[C@H](NC6CC6)C5)ccc4n3)cc2o1` (single isomer, unassigned) [Compound 254, 6-{6-[3-(cyclopropylamino)pyrrolidin-1-yl]-1,5-naphthyridin-2-yl}-4-fluoro-2-methyl-1,3-benzoxazol-5-ol], the IC50 in assay [1], in assay [2], in assay [3] and in assay [4] was under 100 nM in each case. For the same compound, the half-maximal activity concentration (AC50) in assay [1] was under 100 nM.
Regarding `Cc1nc2c(F)c(O)c(-c3ccc4nc(N5CC[C@H](NC(C)(C)C)C5)ccc4n3)cc2o1` (single isomer, unassigned) [Compound 255, 6-{6-[3-(tert-butylamino)pyrrolidin-1-yl]-1,5-naphthyridin-2-yl}-4-fluoro-2-methyl-1,3-benzoxazol-5-ol], the half-inhibitory concentration (IC50) in assay [1], in assay [2], in assay [3] and in assay [4] was under 100 nM each time. Further, the AC50 in assay [1] was under 100 nM.
Turning to `Cc1nc2c(F)c(O)c(-c3ccc4nc(N5CC[C@@H](NC(C)(C)C)C5)ccc4n3)cc2o1` (single isomer, unassigned) [Compound 256, 6-{6-[3-(tert-butylamino)pyrrolidin-1-yl]-1,5-naphthyridin-2-yl}-4-fluoro-2-methyl-1,3-benzoxazol-5-ol], the IC50 in assay [1], in assay [2], in assay [3] and in assay [4] was under 100 nM throughout. For the same compound, the AC50 in assay [1] is under 100 nM.
As for `Cc1nc2cc(O)c(-c3ccc4nc(N5CC[C@H](NC6(C)CC6)C5)ccc4n3)cc2o1` (single isomer, unassigned) [Compound 257, 2-methyl-6-(6-{3-[(1-methylcyclopropyl)amino]pyrrolidin-1-yl}-1,5-naphthyridin-2-yl)-1,3-benzoxazol-5-ol], the 50% inhibitory concentration (IC50) in assay [1], in assay [2], in assay [3] and in assay [4] was under 100 nM throughout. Also, in assay [1], the concentration at half-maximal activity (AC50) was under 100 nM.
Regarding `Cc1nc2cc(O)c(-c3ccc4nc(N5CC[C@@H](NC6(C)CC6)C5)ccc4n3)cc2o1` (single isomer, unassigned) [Compound 258, 2-methyl-6-(6-{3-[(1-methylcyclopropyl)amino]pyrrolidin-1-yl}-1,5-naphthyridin-2-yl)-1,3-benzoxazol-5-ol], the IC50 is under 100 nM in assay [1], under 100 nM in assay [2], under 100 nM in assay [3] and 100 to 1000 nM in assay [4]. For the same compound, the AC50 in assay [1] was under 100 nM.
In the case of `Cc1c(O)c(-c2ccc3nc(N4CC[C@@H](NC5CC5)C4)ccc3n2)cc2cn(C)nc12` (single isomer, unassigned) [Compound 259], the IC50 in assay [1], in assay [2], in assay [3] and in assay [4] was under 100 nM in each case. Moreover, the AC50 in assay [1] was under 100 nM.
With `Cc1c(O)c(-c2ccc3nc(N4CC[C@H](NC5CC5)C4)ccc3n2)cc2cn(C)nc12` (single isomer, unassigned) [Compound 260], the IC50 in assay [1], in assay [2], in assay [3] and in assay [4] was under 100 nM in each case. Also, in assay [1], the half-maximal activity concentration (AC50) was under 100 nM.
As to `Cn1cc2cc(-c3ccc4nc(N5CC[C@H](NC6COC6)C5)ccc4n3)c(O)cc2n1` (stereo in doubt) [Compound 189], the half-inhibitory concentration (IC50) in assay [1] was 1000 to 10000 nM; in assay [2], under 100 nM; in assay [3], 1000 to 10000 nM; in assay [4] it was 1000 to 10000 nM. For the same compound, the concentration at half-maximal activity (AC50) in assay [1] lay within 100 to 1000 nM.
Regarding `Cn1cc2cc(-c3ccc4nc(N5CC[C@@H](NCC(F)(F)F)C5)ccc4n3)c(O)cc2n1` (stereo in doubt) [Compound 245], the half-inhibitory concentration (IC50) is over 10000 nM in assay [1], 1000 to 10000 nM in assay [2], over 10000 nM in assay [3] and over 10000 nM in assay [4]. In addition, the AC50 in assay [1] was over 10000 nM.

The values above are taken from patent US20240002375A1, “2-(INDAZOL-5-YL)-6-(PIPERIDIN-4-YL)-1,7-NAPHTHYRIDINE DERIVATIVES AND RELATED COMPOUNDS AS MODULATORS FOR SPLICING NUCLEIC ACIDS AND FOR THE TRE” (REMIX THERAPEUTICS INC., priority 2020, published 2024).
